Test results published in ChEMBL document CHEMBL1142777, “Identification of potent type I MetAP inhibitors by simple bioisosteric replacement. Part 1: Synthesis and preliminary SAR studies of thiazole-4-carboxylic acid thiazol-2-ylamide derivatives” (Bioorg Med Chem Lett, 2005).

Legend:
[1] = biological target: T1, Methionine aminopeptidase (Escherichia coli K-12, UniProt P0AE18); assay: Inhibitory concentration required against Escherichia coli MetAP1 (150 nM)
T1 sequence (P0AE18 whole entry): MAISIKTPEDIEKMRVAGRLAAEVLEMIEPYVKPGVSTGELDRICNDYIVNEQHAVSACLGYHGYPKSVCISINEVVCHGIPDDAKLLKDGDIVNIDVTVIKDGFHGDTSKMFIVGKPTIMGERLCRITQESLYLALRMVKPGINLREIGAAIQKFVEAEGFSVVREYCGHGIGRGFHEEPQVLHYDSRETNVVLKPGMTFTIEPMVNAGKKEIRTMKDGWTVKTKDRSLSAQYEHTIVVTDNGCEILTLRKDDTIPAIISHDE

[2] = biological target: T2, Methionine aminopeptidase 1 (Saccharomyces cerevisiae S288c, UniProt Q01662); assay: Inhibitory concentration required against Saccharomyces cerevisiae MetAP1 (330 nM)
T2 sequence (Q01662 whole entry): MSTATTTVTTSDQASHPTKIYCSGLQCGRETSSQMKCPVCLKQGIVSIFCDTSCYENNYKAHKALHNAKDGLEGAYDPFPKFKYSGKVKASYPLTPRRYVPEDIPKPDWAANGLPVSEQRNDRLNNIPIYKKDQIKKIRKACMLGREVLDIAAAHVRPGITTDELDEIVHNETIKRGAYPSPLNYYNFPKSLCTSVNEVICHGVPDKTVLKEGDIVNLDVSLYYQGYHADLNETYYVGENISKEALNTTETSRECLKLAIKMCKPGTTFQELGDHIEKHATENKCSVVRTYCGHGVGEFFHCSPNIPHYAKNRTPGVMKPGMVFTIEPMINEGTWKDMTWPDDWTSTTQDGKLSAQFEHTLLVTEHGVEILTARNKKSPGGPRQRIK

IC50 [1]	IC50 [2]	Compound
0.11 µM	2.26 µM	O=C(Nc1nccs1)c1cscn1
0.06 µM	4.62 µM	CC(C)(C)OC(=O)Nc1scnc1C(=O)Nc1nccs1
0.074 µM	0.88 µM	COC(C)Cc1scnc1C(=O)Nc1nccs1 (stereo not drawn)
0.17 µM	3.8 µM	O=C(Nc1nccs1)c1ncsc1Cc1ccccc1
0.16 µM	0.86 µM	O=C(CN1CCCC1)Nc1scnc1C(=O)Nc1nccs1
0.27 µM	1.83 µM	O=C(Nc1scnc1C(=O)Nc1nccs1)c1cccc(Cl)c1
0.3 µM	10.5 µM	CN(C)CC(=O)Nc1scnc1C(=O)Nc1nccs1
0.088 µM	4.91 µM	O=C(O)CC(=O)Nc1scnc1C(=O)Nc1nccs1
0.11 µM	4.71 µM	O=C(CN1CCOCC1)Nc1scnc1C(=O)Nc1nccs1
0.042 µM	6.38 µM	O=C(Nc1nccs1)c1ncsc1NC(=O)C1CC1
0.053 µM		O=C(CN1CCCCC1)Nc1cccnc1C(=O)Nc1nccs1
0.1 µM	0.99 µM	CC(C)Cc1scnc1C(=O)Nc1nccs1
0.16 µM	0.98 µM	CCCCCc1scnc1C(=O)Nc1nccs1
1.97 µM	13.2 µM	Nc1scnc1C(=O)Nc1nccs1
0.076 µM	2.65 µM	CC(=O)OCC(=O)Nc1scnc1C(=O)Nc1nccs1
0.065 µM	0.66 µM	O=C(Nc1nccs1)c1ncsc1CCc1ccccc1
76.5 µM	> 100 µM	CCCCCCCCCCCc1scnc1C(=O)Nc1nccs1
0.11 µM	0.48 µM	O=C(Nc1scnc1C(=O)Nc1nccs1)c1ccc(F)cc1
0.18 µM	9.82 µM	Cc1scnc1C(=O)Nc1nccs1

IC50 [1]	IC50 [2]	Compound
0.089 µM	0.5 µM	COC(Cc1scnc1C(=O)Nc1nccs1)C(C)C (stereo not drawn)
0.029 µM	1.12 µM	O=C(COCc1ccccc1)Nc1scnc1C(=O)Nc1nccs1
0.21 µM	3.41 µM	O=C(Nc1nccs1)c1ncsc1-c1ccccc1
0.18 µM	7.64 µM	CCc1scnc1C(=O)Nc1nccs1
	0.14 µM	CC(C)=CCC(=O)Nc1cccnc1C(=O)Nc1nccs1
0.024 µM	0.13 µM	O=C(Nc1nccs1)c1ncsc1NC(=O)C1CCCC1
0.044 µM	0.37 µM	C=CC(C)C(=O)Nc1scnc1C(=O)Nc1nccs1 (stereo not drawn)
0.17 µM	2.11 µM	CC(C)=CCCC(C)Cc1scnc1C(=O)Nc1nccs1 (stereo not drawn)
0.066 µM	0.67 µM	CCOC(=O)CC(=O)Nc1scnc1C(=O)Nc1nccs1
0.04 µM	0.25 µM	O=C(Nc1nccs1)c1ncsc1NC(=O)C1CCC1
0.076 µM	0.99 µM	O=C(Nc1scnc1C(=O)Nc1nccs1)c1ccccc1F
0.081 µM	0.22 µM	CCC(=O)Nc1scnc1C(=O)Nc1nccs1
0.082 µM	0.9 µM	O=C(Nc1nccs1)c1ncsc1Cc1ccc(F)cc1Cl
0.19 µM	3.32 µM	COc1ccccc1C(=O)Nc1scnc1C(=O)Nc1nccs1
0.054 µM	2.63 µM	C=CCC(=O)Nc1scnc1C(=O)Nc1nccs1
0.14 µM	1.45 µM	O=C(CN1CCCCC1)Nc1scnc1C(=O)Nc1nccs1
0.092 µM	1.53 µM	COCC(=O)Nc1scnc1C(=O)Nc1nccs1
0.22 µM	7.2 µM	CC(C)c1scnc1C(=O)Nc1nccs1
0.13 µM		C=CCC(=O)Nc1cccnc1C(=O)Nc1nccs1
